Experiments:
ChiB = target: T1, ChiB (Clostridium perfringens, UniProt F8UNI4)
T1 construct: gene CP4_3454

[1] = target: T2, ChiA (N-terminally trimmed version) (Clostridium perfringens, UniProt F8UNI5)
T2 construct: gene CP4_3455

[2] = target: T2, ChiA (N-terminally trimmed version); remark: listed apart in the source

T2 sequence (F8UNI5 46-611 limits assumed): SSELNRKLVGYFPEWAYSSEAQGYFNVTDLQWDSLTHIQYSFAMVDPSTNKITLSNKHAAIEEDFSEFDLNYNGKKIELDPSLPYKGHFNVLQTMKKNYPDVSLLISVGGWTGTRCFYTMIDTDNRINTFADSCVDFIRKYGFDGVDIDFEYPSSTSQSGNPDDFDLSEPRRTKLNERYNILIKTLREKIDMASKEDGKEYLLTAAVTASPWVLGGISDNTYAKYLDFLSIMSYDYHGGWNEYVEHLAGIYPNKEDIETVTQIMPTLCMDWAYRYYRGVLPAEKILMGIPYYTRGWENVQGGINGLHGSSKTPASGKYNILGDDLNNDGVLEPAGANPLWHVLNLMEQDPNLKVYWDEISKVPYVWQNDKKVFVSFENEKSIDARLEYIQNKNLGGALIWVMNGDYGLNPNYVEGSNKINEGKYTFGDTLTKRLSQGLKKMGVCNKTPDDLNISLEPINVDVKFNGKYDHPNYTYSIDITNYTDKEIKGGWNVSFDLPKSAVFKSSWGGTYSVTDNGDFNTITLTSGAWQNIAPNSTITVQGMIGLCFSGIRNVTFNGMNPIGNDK
T1 sequence (F8UNI4 1-599): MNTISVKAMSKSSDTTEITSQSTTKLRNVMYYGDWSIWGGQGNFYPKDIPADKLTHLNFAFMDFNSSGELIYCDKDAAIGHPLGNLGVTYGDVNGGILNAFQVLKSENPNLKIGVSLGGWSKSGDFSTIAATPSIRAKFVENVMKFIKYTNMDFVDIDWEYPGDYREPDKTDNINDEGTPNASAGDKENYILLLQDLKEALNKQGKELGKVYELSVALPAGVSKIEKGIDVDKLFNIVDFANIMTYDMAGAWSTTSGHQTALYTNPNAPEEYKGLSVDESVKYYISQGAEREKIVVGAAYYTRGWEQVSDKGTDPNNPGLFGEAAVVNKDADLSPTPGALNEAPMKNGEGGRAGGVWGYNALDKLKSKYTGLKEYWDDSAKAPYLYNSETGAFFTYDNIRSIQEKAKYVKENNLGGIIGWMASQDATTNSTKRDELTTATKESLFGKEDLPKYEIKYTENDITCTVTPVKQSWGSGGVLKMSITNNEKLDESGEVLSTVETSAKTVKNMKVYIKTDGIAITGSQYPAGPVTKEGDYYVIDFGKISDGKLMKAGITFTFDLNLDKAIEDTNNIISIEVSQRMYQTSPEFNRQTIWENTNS

With `Cn1cnc2c1c(=O)n(CCCn1c(=O)c3c(ncn3C)n(C)c1=O)c(=O)n2C` [Bisdionin C] the “X-ray co-crystal structure, 1.85 Å” value (ChiB) was “The crystal of ChiB in complex with the chitinase inhibitor Bisdionin C” and the “X-ray crystal structure by soaking, 1.35 Å” value [1] was “The crystal of ChiA in complex with the chitinase inhibitor Bisdionin C”.
For `N[C@H]1[C@H](O[C@H]2[C@H](O)[C@@H](N)[C@H](O[C@H]3[C@H](O)[C@@H](N)[C@H](O[C@H]4[C@H](O)[C@@H](N)[C@H](O[C@H]5[C@H](O)[C@@H](N)[C@H](O[C@H]6[C@H](O)[C@@H](N)C(O)O[C@@H]6CO)O[C@@H]5CO)O[C@@H]4CO)O[C@@H]3CO)O[C@@H]2CO)O[C@H](CO)[C@@H](O)[C@@H]1O` (stereo partly drawn) [chitosan hexamer], the “X-ray co-crystal structure, 1.30 Å” value [2] was “The crystal of ChiA in complex with the chitinase inhibitor chitosan”.

Reference: publication PMC11426533 (PLOS Pathogens, 2024)
